Measured values taken from the NIST ThermoML archive (doi:10.1021/je800429j).
Numbers after ± are expanded uncertainties.

Settings: 283.15 K; 101.33 kPa; Liquid; Pycnometric method

mass density: 1004.2 ± 1.6 kg/m3
SMILES: CCCCCC(=O)OCC(COC(=O)CCCCC)(COC(=O)CCCCC)COC(=O)CCCCC [pentaerythritol tetrahexanoate]
